Source: ChEMBL document CHEMBL1201862, “PubChem BioAssay data set” (2004)
Active and inactive are the calls of the source.

Columns and labels:
[1] = molecular target: Glucose-6-phosphate 1-dehydrogenase (Homo sapiens, UniProt P11413); assay: human G6PD enzyme inhibitors, dose response, selectivity assay for P. falciparum G6PD inhibitor project, biochemical, fluorescence (AID 504792); assay type: functional
[2] = molecular target: Voltage-gated N-type calcium channel alpha-1B subunit/Amyloid beta A4 precursor protein-binding family A member 1 (Homo sapiens, UniProt Q00975+Q02410); assay type: protein assay
Voltage-gated N-type calcium channel alpha-1B subunit/Amyloid beta A4 precursor protein-binding family A member 1, sequence (Q00975 whole entry): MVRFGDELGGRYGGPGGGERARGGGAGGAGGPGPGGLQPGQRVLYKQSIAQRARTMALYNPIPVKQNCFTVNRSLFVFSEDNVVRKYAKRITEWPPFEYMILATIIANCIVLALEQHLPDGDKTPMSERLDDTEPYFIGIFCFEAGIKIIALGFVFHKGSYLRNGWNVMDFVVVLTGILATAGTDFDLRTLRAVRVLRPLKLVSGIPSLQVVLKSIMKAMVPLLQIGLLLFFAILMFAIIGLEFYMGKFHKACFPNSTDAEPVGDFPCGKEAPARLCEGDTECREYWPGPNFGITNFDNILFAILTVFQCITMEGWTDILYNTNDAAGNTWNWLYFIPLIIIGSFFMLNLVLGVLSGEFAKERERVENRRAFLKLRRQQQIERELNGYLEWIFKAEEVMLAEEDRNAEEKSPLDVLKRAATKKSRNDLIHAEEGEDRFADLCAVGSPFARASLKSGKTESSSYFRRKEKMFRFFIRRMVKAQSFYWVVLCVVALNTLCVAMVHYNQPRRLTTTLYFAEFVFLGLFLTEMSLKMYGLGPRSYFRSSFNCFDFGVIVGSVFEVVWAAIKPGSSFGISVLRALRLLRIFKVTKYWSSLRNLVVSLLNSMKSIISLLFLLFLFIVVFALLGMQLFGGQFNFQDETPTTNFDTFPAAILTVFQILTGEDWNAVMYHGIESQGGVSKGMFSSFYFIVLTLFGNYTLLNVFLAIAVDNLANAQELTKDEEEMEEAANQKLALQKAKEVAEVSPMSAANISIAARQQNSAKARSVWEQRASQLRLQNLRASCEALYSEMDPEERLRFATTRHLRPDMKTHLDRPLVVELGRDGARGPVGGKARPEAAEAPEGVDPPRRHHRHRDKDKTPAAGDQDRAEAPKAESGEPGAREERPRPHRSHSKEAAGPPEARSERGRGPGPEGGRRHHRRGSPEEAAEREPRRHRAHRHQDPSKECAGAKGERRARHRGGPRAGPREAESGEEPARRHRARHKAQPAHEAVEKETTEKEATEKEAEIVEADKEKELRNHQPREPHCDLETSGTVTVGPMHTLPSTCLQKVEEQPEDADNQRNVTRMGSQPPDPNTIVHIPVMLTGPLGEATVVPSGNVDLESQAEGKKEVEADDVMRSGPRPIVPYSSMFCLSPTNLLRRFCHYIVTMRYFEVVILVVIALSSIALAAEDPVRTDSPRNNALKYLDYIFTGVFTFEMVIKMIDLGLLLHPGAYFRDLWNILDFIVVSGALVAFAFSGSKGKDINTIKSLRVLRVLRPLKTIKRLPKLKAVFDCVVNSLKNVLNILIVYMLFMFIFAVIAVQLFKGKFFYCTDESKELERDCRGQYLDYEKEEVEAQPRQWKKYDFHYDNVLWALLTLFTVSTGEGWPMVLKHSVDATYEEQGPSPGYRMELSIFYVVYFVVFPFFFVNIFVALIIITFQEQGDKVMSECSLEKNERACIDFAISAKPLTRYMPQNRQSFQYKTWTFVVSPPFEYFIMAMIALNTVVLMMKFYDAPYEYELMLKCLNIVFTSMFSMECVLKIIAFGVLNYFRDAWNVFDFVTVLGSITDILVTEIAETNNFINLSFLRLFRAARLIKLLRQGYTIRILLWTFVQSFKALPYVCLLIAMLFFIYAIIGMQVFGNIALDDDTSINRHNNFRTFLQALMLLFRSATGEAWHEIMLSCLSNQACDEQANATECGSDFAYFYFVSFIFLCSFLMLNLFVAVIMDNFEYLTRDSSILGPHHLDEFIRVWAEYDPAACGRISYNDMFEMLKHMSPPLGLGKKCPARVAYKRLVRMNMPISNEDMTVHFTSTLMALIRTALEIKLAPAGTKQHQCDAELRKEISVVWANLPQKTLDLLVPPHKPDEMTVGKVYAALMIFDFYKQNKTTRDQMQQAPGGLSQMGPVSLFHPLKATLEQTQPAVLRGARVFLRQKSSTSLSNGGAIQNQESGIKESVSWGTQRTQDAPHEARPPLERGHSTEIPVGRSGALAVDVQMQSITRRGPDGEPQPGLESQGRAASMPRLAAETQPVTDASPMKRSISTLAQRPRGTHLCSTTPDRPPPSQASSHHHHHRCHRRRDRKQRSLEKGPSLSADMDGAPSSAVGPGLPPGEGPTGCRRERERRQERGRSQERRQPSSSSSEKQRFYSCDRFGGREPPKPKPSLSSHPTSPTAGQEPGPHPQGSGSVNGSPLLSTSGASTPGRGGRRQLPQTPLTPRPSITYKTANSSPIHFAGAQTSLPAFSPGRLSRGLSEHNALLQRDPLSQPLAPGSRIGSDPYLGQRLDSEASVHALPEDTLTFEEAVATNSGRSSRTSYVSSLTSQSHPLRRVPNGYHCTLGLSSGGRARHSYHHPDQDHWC
Voltage-gated N-type calcium channel alpha-1B subunit/Amyloid beta A4 precursor protein-binding family A member 1, sequence (Q02410 whole entry): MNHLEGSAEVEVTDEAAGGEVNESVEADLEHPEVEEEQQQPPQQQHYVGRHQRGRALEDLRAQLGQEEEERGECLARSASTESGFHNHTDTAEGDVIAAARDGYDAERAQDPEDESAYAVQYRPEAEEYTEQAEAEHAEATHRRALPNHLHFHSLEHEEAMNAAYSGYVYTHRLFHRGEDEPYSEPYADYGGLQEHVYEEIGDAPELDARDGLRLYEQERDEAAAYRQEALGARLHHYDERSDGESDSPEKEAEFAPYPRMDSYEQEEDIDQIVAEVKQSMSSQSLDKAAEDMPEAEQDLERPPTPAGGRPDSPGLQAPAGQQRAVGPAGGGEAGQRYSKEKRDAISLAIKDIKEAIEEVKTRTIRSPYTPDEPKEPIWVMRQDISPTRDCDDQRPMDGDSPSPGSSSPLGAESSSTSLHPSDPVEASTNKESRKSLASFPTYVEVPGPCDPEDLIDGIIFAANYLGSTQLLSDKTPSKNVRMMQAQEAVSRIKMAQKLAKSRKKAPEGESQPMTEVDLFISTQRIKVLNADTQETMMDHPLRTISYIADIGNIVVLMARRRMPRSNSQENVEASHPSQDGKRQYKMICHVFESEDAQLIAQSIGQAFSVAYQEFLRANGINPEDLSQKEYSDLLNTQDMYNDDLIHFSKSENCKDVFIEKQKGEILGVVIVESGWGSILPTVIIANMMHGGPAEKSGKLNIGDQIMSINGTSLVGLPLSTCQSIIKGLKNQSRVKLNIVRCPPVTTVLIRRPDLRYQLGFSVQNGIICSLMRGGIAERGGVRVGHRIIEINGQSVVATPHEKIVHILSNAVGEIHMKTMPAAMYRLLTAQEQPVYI

HeLa = assay: HeLa cell cytotoxicity, dose response, cytotoxicity control, 24 h, cherry-picked samples (AID 504726); assay type: functional, cell-based; conditions: Homo sapiens;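 note: potency for cytotoxicity as loss of luminescence signal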
[3] = molecular target: T1, Bifunctional protein GlmU (Mycobacterium tuberculosis, UniProt P9WMN3); assay: Inhibitors of Mycobacterial Glucosamine-1-phosphate acetyl transferase (GlmU). Secondary screen.; set-up: species or system Mycobacterium tuberculosis H37Rv
T1 sequence (P9WMN3 whole entry): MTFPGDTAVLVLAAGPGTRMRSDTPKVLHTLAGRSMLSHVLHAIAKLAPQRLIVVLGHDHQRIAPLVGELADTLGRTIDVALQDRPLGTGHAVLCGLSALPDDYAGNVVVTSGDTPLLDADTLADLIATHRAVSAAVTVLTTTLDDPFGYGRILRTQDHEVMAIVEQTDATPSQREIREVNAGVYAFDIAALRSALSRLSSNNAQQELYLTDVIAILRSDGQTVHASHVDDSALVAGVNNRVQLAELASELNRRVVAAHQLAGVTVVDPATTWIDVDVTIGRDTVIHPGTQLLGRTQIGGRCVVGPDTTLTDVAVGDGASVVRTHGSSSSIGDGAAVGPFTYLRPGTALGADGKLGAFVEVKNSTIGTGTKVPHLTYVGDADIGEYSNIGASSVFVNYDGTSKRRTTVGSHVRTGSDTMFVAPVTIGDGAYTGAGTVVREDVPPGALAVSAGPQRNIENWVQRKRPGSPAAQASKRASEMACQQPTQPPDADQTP

[4] = molecular target: T2, 1-phosphatidylinositol 4,5-bisphosphate phosphodiesterase gamma-1 (Homo sapiens, UniProt P19174); assay: Counterscreen for inhibitors of phospholipase C isozymes (PLC-B3): Fluorescence-based biochemical high throughput dose response assay to identify inhibitors of phospholipase C isozymes (PLC-gamma1).
T2 sequence (P19174 whole entry): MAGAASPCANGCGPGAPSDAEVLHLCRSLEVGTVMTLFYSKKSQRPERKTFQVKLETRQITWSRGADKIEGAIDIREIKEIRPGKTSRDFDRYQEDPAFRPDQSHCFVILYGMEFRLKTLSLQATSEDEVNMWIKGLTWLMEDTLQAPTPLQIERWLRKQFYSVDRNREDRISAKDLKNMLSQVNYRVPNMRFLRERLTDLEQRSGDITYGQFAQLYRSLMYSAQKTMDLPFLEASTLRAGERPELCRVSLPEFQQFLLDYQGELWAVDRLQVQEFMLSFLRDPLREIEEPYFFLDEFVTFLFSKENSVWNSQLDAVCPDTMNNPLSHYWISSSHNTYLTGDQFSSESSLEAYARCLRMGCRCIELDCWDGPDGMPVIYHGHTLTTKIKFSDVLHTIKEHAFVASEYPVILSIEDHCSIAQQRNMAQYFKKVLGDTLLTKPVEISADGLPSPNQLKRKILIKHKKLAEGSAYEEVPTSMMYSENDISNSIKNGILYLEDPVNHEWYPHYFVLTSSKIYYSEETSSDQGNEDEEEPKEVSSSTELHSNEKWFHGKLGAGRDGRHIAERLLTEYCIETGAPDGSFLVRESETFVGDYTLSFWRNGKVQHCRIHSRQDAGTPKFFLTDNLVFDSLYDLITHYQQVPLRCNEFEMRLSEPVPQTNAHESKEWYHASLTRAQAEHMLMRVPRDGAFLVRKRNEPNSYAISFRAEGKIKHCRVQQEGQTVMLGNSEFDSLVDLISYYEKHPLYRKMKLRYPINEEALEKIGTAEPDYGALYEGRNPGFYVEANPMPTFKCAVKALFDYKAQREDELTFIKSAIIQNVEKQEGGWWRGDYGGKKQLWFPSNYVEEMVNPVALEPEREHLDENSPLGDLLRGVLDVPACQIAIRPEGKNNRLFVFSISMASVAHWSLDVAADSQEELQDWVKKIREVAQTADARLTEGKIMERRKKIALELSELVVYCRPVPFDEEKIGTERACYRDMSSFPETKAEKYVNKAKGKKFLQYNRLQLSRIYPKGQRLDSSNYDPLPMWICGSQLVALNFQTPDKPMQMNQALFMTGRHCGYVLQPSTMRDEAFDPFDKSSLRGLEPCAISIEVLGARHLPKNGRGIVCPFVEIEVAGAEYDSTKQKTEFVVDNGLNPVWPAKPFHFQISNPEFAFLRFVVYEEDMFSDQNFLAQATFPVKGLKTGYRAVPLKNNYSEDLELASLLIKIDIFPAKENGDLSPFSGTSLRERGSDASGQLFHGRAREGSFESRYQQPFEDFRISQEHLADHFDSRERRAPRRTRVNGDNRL

[5] = molecular target: Intestinal-type alkaline phosphatase (Mus musculus, UniProt P24822); assay: PubChem AID 488785; assay type: functional
Intestinal-type alkaline phosphatase (Mus musculus, UniProt P24822), sequence (P24822 whole entry): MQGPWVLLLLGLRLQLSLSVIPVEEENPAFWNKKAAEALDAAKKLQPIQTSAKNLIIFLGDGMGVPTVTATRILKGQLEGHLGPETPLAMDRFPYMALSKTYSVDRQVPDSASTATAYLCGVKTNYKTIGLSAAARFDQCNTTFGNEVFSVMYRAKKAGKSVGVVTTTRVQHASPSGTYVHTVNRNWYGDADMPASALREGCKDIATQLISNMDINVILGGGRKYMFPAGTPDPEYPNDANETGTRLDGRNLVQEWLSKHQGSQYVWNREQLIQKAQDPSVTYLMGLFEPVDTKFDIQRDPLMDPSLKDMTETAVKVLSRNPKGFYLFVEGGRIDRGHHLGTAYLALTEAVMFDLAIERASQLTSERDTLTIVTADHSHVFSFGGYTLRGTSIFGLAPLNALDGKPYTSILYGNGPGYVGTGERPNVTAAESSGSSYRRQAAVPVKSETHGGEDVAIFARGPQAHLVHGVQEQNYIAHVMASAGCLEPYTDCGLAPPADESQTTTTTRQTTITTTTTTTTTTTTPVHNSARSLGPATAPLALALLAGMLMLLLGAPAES

[6] = molecular target: Intestinal-type alkaline phosphatase (Homo sapiens, UniProt P09923); assay: inhibition of human intestinal alkaline phosphatase – biochemical, dose response (AID 488876); assay type: functional
Intestinal-type alkaline phosphatase (Homo sapiens, UniProt P09923), sequence (P09923 whole entry): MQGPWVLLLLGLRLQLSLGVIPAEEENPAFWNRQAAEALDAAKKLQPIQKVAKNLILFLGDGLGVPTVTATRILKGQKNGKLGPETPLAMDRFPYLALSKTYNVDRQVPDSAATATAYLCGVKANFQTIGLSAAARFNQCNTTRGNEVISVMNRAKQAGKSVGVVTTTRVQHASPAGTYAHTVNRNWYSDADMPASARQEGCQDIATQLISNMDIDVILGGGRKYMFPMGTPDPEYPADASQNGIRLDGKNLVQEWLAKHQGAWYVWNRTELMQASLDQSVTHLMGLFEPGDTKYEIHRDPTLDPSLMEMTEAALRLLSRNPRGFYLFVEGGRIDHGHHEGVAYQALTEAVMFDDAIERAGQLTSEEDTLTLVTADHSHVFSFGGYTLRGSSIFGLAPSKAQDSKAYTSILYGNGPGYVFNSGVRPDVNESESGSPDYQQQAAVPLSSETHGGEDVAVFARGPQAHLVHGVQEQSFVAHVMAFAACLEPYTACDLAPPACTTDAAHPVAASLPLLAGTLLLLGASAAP

[7] = molecular target: Glutathione-S-transferase (Schistosoma japonicum, UniProt Q26513); assay: biotin-GST/anti-GST TR-FRET signal inhibitors, dose response, artefact control for Vif-APOBEC3G degradation inhibitor project, biochemical (AID 1117362); assay type: functional
Glutathione-S-transferase, sequence (Q26513 whole entry): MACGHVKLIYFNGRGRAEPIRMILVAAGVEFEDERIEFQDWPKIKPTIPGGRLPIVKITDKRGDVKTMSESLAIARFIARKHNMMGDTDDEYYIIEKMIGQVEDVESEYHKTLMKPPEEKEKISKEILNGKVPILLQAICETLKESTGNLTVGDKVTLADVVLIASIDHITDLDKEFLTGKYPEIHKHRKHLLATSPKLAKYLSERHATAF

Aspartyl aminopeptidase = molecular target: T3, Aspartyl aminopeptidase (Plasmodium falciparum 3D7, UniProt Q8I2J3)
T3 sequence (Q8I2J3 whole entry): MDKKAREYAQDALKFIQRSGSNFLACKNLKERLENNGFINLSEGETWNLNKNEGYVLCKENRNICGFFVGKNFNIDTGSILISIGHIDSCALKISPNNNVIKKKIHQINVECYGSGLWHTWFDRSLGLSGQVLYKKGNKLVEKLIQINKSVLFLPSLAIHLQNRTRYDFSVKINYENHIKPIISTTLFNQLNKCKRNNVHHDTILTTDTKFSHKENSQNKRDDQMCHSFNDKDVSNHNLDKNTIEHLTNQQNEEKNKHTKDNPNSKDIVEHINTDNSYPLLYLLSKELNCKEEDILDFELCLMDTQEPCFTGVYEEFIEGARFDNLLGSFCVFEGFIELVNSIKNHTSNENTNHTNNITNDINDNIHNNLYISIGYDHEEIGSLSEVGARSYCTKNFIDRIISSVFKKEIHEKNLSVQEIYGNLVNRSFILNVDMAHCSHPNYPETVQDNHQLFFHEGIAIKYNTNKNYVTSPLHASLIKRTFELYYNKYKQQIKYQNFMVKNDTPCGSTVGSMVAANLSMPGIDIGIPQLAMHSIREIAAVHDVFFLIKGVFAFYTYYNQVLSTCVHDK

[8] = NIH-3T3 fibroblast cytotoxicity, dose response, cytotoxicity control, cell-based, fluorescence, Alamar Blue, secondary assay (AID 2327); assay type: functional;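 note: NIH-3T3 mouse fibroblasts cultured with fluconazole at 8 µg/mL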

Glucose-6-phosphate 1-dehydrogenase, sequence (P11413 whole entry): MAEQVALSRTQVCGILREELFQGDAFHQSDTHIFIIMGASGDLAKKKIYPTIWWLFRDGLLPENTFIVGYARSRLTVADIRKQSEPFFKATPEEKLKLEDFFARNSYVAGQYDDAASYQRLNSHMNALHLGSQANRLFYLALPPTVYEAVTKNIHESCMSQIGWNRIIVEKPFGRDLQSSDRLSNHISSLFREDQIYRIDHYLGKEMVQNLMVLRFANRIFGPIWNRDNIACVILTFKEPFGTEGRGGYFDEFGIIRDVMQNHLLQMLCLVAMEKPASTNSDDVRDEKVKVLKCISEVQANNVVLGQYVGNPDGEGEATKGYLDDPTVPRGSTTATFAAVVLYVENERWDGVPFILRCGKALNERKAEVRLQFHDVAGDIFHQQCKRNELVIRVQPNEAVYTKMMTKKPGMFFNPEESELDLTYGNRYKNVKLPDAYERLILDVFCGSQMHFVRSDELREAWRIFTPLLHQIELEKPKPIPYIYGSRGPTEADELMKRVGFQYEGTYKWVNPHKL

With `Cc1cc(C)c(S(=O)(=O)Nc2cc(SCC(=O)O)c(O)c3ccccc23)cc1C` the IC50 [1] was 8.73 µM (active).

For `O=C(O)c1cc(N2N=C(C(F)(F)F)/C(=C/C=C/c3ccco3)C2=O)ccc1Cl`, the IC50 [2] was 24.6 µM (active), the AC50 (HeLa) was 24.9 µM (active) and the IC50 [3] was 94.3 µM (active).

In the case of `O=C(/C=C/c1ccco1)NC(=S)Nc1cccc(C(=O)O)c1`, the IC50 [4] is reported as > 122 µM (inactive), the IC50 [5] is reported as 9.52 µM (active) and the IC50 [6] is reported as > 100 µM (inactive).

For `CNCc1ccccc1Sc1ccc(O)c(O)c1`, the IC50 [7] was 16 µM (active), the IC50 (Aspartyl aminopeptidase) was 1.89 µM (active) and the EC50 [8] was > 150 µM (inactive).
